# Source: ChEMBL document CHEMBL1148657, “Diels-Alder/thiol-olefin co-oxygenation approach to antimalarials incorporating the 2,3-dioxabicyclo[3.3.1]nonane pharmacophore” (Bioorg Med Chem Lett, 2006)
# System: Plasmodium falciparum
# Assay: Antimalarial activity against Plasmodium falciparum NF54
# Format: functional, organism-based
# Conditions: not given
row,Structure (SMILES),IC50
1,CC1(OCc2ccccc2)CCC2CC1OO[C@@]2(C)CS(=O)(=O)c1ccccc1 (stereo partly drawn),6.5 nM
2,C[C@@H]1CC[C@H]2[C@@H](C)C(=O)O[C@@H]3O[C@@]4(C)CC[C@@H]1[C@]32OO4 [ARTEMISININ],8.9 nM

# System: Plasmodium falciparum
# Assay: Antimalarial activity against chloroquine-resistant Plasmodium falciparum K1
# Format: functional, organism-based
# Conditions: not given
row,Structure (SMILES),IC50
1,CC(=O)OC1(C)CCC2CC1OO[C@]2(/C=C\c1ccccc1)c1ccccc1 (stereo partly drawn),23 nM

# Same assay, conditions: Plasmodium falciparum, K1
row,Structure (SMILES),IC50
1,CC(=O)OC1(C)CCC2CC1OO[C@@]2(CSc1ccccc1)c1ccccc1 (stereo partly drawn),124 nM
2,CC1(O)CCC2CC1OO[C@@]2(CSc1ccc(Cl)cc1)c1ccccc1 (stereo partly drawn),541 nM
3,CC1(O)CCC2CC1OO[C@@]2(CSc1ccccc1)c1ccccc1 (stereo partly drawn),81 nM
4,CC1(O)CCC2CC1OO[C@]2(CS(=O)(=O)c1ccc(Cl)cc1)c1ccccc1 (stereo partly drawn),225 nM
5,CC(=O)OC1(C)CCC2CC1OO[C@]2(CS(=O)(=O)c1ccccc1)c1ccccc1 (stereo partly drawn),72 nM
6,CC1(O)CCC2CC1OO[C@]2(CS(=O)(=O)c1ccccc1)c1ccccc1 (stereo partly drawn),230 nM
7,CC(=O)OC1(C)CCC2CC1OO[C@]2(CSc1ccccc1)c1ccccc1 (stereo partly drawn),164 nM
8,C[C@@H]1C(=O)C[C@H]2C[C@@H]1OO[C@@]2(C)/C=C\c1ccc(C(F)(F)F)cc1C(F)(F)F [ARTEFLENE],76 nM
9,CC1(O)CCC2CC1OO[C@]2(CSc1ccc(Cl)cc1)c1ccccc1 (stereo partly drawn),247 nM
10,CC1(O)CCC2CC1OO[C@@]2(CS(=O)(=O)c1ccccc1)c1ccccc1 (stereo partly drawn),92 nM
11,CC1(O)CCC2CC1OO[C@]2(CSc1ccccc1)c1ccccc1 (stereo partly drawn),298 nM
12,O=C(CS(=O)(=O)c1ccccc1)c1ccccc1,1000 nM
13,CC1(O)CCC2CC1OO[C@@]2(CS(=O)(=O)c1ccc(Cl)cc1)c1ccccc1 (stereo partly drawn),107 nM
14,CC(=O)OC1(C)CCC2CC1OO[C@@]2(CS(=O)(=O)c1ccccc1)c1ccccc1 (stereo partly drawn),42 nM
15,CC(=O)OC1(C)CCC2CC1OO[C@]2(/C=C\c1ccccc1)c1ccccc1 (stereo partly drawn),34 nM
